Laboratory results published in paper PMC2363545 (British Journal of Cancer, 2000).
Where “and” joins values, the source holds several entries; their conditions need not be identical. Equal values may be shown once.

Key:
breast cancer cell lines [1] = conditions: cited from earlier work
breast cancer cell lines [2] = test system: breast cancer cell lines
[3] = in vivo
anal carcinoma = conditions: in vivo
advanced breast cancer = conditions: in vivo
[4] = test system: NQO2-transfected rodent or non-transfected human tumor cell lines
[5] = in vivo; remark: listed apart in the source
VB6 and H357 SCC cells = assay type: cell-based, human
[6] = test system: advanced head and neck cancer; conditions: in vivo
[7] = test system: topoisomerase II expression in NIH3T3 cells
SCLC = conditions: in vivo
metastatic breast cancer = conditions: in vivo
metastatic RCC = test system: metastatic RCC; set-up: species or system human; conditions: in vivo, po
[8] = target: reduced-folate carrier (RFC) (Homo sapiens, UniProt P41440); conditions: read-out: Km for the RFC
reduced-folate carrier (RFC), sequence (P41440 whole entry): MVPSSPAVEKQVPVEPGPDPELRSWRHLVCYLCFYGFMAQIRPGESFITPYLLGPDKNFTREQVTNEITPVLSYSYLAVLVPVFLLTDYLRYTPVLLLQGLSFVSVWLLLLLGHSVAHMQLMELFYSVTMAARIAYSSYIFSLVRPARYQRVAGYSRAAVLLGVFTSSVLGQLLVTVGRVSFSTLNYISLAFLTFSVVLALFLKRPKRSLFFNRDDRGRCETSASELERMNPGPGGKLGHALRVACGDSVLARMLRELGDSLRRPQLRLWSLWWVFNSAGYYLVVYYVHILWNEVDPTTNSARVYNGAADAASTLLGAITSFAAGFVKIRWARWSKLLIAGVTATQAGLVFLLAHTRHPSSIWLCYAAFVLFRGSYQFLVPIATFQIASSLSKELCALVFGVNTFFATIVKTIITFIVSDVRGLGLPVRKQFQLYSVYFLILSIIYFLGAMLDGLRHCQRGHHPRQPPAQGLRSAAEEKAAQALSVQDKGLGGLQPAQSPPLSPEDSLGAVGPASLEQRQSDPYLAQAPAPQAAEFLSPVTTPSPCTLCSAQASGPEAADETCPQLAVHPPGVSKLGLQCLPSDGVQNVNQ

DNA-topoisomerase I = DNA-topoisomerase I (Homo sapiens, UniProt P11387); assay type: biochemical
DNA-topoisomerase I, sequence (P11387 whole entry): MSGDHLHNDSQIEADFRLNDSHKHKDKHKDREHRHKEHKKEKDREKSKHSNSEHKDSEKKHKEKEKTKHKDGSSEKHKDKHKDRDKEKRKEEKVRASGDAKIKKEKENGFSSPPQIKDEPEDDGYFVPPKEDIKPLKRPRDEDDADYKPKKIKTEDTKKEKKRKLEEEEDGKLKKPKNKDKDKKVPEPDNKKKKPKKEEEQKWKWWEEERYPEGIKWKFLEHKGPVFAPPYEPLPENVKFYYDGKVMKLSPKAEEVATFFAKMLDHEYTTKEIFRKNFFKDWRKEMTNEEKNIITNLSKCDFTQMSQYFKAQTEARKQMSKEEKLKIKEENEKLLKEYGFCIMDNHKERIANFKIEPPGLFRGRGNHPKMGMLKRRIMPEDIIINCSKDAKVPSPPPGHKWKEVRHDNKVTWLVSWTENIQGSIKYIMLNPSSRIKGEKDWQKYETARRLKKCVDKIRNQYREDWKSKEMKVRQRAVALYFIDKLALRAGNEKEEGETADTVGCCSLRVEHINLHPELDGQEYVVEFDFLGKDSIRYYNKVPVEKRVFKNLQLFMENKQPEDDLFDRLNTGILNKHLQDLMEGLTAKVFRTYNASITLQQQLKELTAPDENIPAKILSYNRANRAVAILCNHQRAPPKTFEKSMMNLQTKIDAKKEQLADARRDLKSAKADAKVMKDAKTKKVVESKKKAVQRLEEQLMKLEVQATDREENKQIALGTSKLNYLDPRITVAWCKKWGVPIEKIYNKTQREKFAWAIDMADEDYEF

carcinoma of cervix = conditions: in vivo
[9] = in vivo; remark: listed apart in the source
cervix cancer = conditions: in vivo
[10] = test system: liver metastases (murine T50/80 breast); set-up: species or system mice; conditions: mouse, in vivo
[11] = mouse, in vivo
[12] = in vivo; remark: listed apart in the source
[13] = in vivo; remark: listed apart in the source

Molecule: COc1cc2c(cc1OS(N)(=O)=O)CC[C@@H]1[C@@H]2CC[C@]2(C)C(=O)CC[C@@H]12 [2-MeOEMATE, 2-Methoxyestrone-3-O-Sulfamate]
- G2/M arrest in breast cancer cells in vitro (breast cancer cell lines [1]): induced G2/M arrest
- effect on tubulin assembly (tubulin): inhibited the ability of paclitaxel to promote tubulin assembly
- fold more potent than parent compounds (breast cancer cell lines [2]): > 10 fold

Molecule: O=c1[nH]cc(F)c(=O)[nH]1 [5-FU]
- Kelim [3]: 3.7 0.8 hr-1
- PD (anal carcinoma): 4%
- PR (anal carcinoma): 22%
- acute skin toxicity grade 3 (anal carcinoma): 96%
- clinical CR (anal carcinoma): 74%

Molecule: CC(C)(C#N)c1cc(Cn2cncn2)cc(C(C)(C)C#N)c1 [AN]
- OR (CR+PR) (advanced breast cancer): 29%
- median TTP (advanced breast cancer): 8.5 months and 10.7 months
- thromboembolic events (advanced breast cancer): 4.5%
- vaginal bleeding (advanced breast cancer): 1.2%

Molecule: NC(=O)c1cc(N2CC2)c([N+](=O)[O-])cc1[N+](=O)[O-] [CB1954, 5-(aziridin-l-yl)-2,4-dinitrobenzamide]
- increase in CB 1954 cytotoxicity in the presence of NRH [4]: 100-3000 fold
- drug unchanged in the urine [5]: < 5%
- median elimination half-life [5]: 51 min
- time serum levels greater than 0.1 µM [5]: more than 4 hours
- time serum levels greater than 1 M [5]: 2 h
- maximum tolerated dose (MTD) ([5]; iv): 37.5 mg/m2

Molecule: COc1c(C[C@@H](C)OC(=O)Oc2ccc(O)cc2)c2c3c(C[C@@H](C)OC(=O)c4ccccc4)c(OC)c(=O)c4c(O)cc(OC)c(c5c(OC)cc(O)c(c1=O)c52)c43 [Calphostin C]
- VB6 cell migration reduced to (VB6 and H357 SCC cells): 7.8%

Molecule: C[C@]12CC[C@@H]3c4ccc(O)cc4CC[C@H]3[C@@H]1CC[C@@H]2O [E2, Oestradiol]
- induction of integrin 1 expression (MCF-7): 1.7 fold
- reduction of integrin 1 expression (MCF-7): 29%

Molecule: Oc1cccc(-c2c3nc(c(-c4cccc(O)c4)c4ccc([nH]4)c(-c4cccc(O)c4)c4nc(c(-c5cccc(O)c5)c5ccc2[nH]5)CC4)C=C3)c1 [Foscan]
- neurotoxicity [6]: No specific neurotoxicity
- tumour effect [6]: consistent tumour necrosis

Molecule: CCOc1ccc(-c2nc3ccc(-c4nc5ccc(N6CCN(C)CC6)cc5[nH]4)cc3[nH]2)cc1 [Hoechst 33342]
- expression of top2 at confluence [7]: increased expression

Molecule: COc1cc2c(c(OC)c1OC)-c1ccc(O)cc1[C@@H](NC(C)=O)CC2 [N-acetylcolchinol]
- concentrations at which toxicity/antiproliferative effects occur (HUVECs): > 100 M

Molecule: C[C@@H](O)[C@@H]1NC(=O)[C@H](CCCCN)NC(=O)[C@@H](Cc2c[nH]c3ccccc23)NC(=O)[C@H](Cc2ccccc2)NC(=O)[C@@H](NC(=O)[C@H](N)Cc2ccccc2)CSSC[C@@H](C(=O)N[C@H](CO)[C@@H](C)O)NC1=O [Octreotide]
- neutropenic pyrexia (SCLC): 9 % of treatment cycles

Molecule: CC/C(=C(\c1ccccc1)c1ccc(OCCN(C)C)cc1)c1ccccc1 [TAM]
- OR (CR+PR) (advanced breast cancer): 27%
- median TTP (advanced breast cancer): 7.0 months and 6.4 months
- thromboembolic events (advanced breast cancer): 7.6%
- vaginal bleeding (advanced breast cancer): 2.9%

Molecule: CC(=O)O[C@@]12CO[C@@H]1C[C@H](O)[C@@]1(C)C(=O)[C@H](O)C3=C(C)[C@@H](OC(=O)[C@H](O)[C@@H](NC(=O)OC(C)(C)C)c4ccccc4)C[C@@](O)([C@@H](OC(=O)c4ccccc4)[C@H]21)C3(C)C [TAX]
- median survival (metastatic breast cancer): 204 days
- patients requiring admission due to neutropenic sepsis (metastatic breast cancer): 40%
- patients showing response (metastatic breast cancer): 53%

Molecule: O=C1CCC(N2C(=O)c3ccccc3C2=O)C(=O)N1 (stereo not shown) [Thalidomide]
- response rate (metastatic RCC): 10%

Molecule: C#CCN(Cc1cc2c(=O)[nH]c(C)nc2cc1C)c1ccc(C(=O)N[C@@H](CCc2nnn[nH]2)C(=O)O)c(F)c1 [ZD9331]
- Km [8]: 1 to 2 µM

Molecule: CC[C@@]1(O)C(=O)OCc2c1cc1n(c2=O)Cc2cc3ccccc3nc2-1 [camptothecin]
- nicked DNA / cleavage (DNA-topoisomerase I): 90%

Molecule: N.N.[Cl][Pt][Cl] [cisplatin]
- general malaise (carcinoma of cervix): 56%
- hypomagnesaemia [9]: 14 % of all chemotherapy cycles
- grade 3 or severe (grade 4) neutropaenia (cervix cancer): 27%
- some degree of neutropaenia (cervix cancer): 70 % of patients
- thrombocytopaenia (cervix cancer): 12%

Molecule: COc1ccc(/C=C\c2cc(OC)c(OC)c(OC)c2)cc1O [combretastatin A4]
- average decrease in tumour volume [10]: 30%

Molecule: COc1cc(/C=C/C(=O)CC(=O)/C=C/c2ccc(O)c(OC)c2)ccc1O [curcumin, diferuloylmethane]
- metabolism (hepatocytes): metabolised to THC, HHC and HHCO

Molecule: Cn1cnc2c(NCc3ccccc3)nc(NCCO)nc21 [olomoucine]
- correlation of PK parameters, combination vs alone (spearman r) [11]: 0.90

Molecule: CC[C@H](CO)Nc1nc(NCc2ccccc2)c2ncn(C(C)C)c2n1 [roscovitine]
- cross-resistance of HCT116/8FP cells (colorectal cell lines): no cross-resistance
- correlation of PK parameters, combination vs alone (spearman r) [11]: 0.99
- ranking of AUC and clearance [11]: highest AUC and the lowest clearance

Molecule: O=P(O)(O)C(O)(Cn1ccnc1)P(=O)(O)O [zoledronate]
- proportion of apoptotic cells (MCF7 cells): significant increase

Molecule: carboplatin
- Grade 1 reaction [12]: 45 % of patients
- HSR on rechallenge with a platinum compound [12]: 66%
- grade II reaction [12]: 25 % of patients
- grade III reaction [12]: 30 % of patients
- incidence of HSR [12]: 10.5%
- mean duration of HSR [12]: 44 min
- mean time interval between initial exposure and HSR [12]: 26.5 months
- mean time of onset of symptoms [12]: 14.5 min
- overall incidence of HSR [12]: 4.5%
- AUC achieved, mean standard deviation [13]: 11420 % of target
